Target: CDK8 (Homo sapiens, UniProt P49336)
Assay: LanthaScreen kinase activity assay (Thermo Fisher SelectScreen kinase profiling service)
Assay type: biochemical
Details: for IC50: CDK8, dose-response at 10,000, 3000, 1000, 300 and 100 nM; for inhibition at 10 µM: CDK8 inhibition, compounds tested at 10 μM, read-out: Inhibitory activity (10 μM)
Description: Selected compounds were tested using the Thermo Fisher Scientific SelectScreen kinase profiling service (www.thermofisher.com/selectscreen). The LanthaScreen kinase activity assay was used. In short, a reaction between fluorescein‐labeled substrate and ATP is performed in a container. The reaction is ceased with the addition of EDTA. A terbium‐labeled antibody is added to detect phosphorylated fluorescein‐labeled substrate. A ratio between the acceptor and donor signal is an indicator of the amount of phosphorylated substrate present in the reaction, thereby indicating kinase activity.

Chain of CDK8 (P49336 whole entry): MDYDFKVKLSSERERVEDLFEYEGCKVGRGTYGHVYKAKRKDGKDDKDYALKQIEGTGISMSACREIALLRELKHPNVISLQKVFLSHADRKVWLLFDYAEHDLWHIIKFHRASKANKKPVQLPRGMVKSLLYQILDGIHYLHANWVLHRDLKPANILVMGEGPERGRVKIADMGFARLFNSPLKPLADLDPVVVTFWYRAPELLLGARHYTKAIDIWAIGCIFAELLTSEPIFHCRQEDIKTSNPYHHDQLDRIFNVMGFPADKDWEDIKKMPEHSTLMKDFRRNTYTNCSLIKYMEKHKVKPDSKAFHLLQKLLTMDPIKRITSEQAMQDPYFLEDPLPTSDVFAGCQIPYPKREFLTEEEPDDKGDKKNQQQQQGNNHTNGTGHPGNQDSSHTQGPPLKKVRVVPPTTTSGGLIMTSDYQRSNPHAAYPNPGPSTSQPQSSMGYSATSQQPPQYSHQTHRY
Chain of CDK8 (P24863 whole entry partner): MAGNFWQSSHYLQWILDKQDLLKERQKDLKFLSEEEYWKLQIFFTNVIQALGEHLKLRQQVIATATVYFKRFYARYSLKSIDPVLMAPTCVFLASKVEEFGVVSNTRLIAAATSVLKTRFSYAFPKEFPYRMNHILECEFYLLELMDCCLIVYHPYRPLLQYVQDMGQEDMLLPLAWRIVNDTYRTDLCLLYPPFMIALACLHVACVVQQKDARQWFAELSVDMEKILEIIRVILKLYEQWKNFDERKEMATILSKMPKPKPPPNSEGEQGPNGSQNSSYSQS

SMILES	IC50 [µM]	inhibition at 10 µM [%]
CCc1cc2c(N3CCCC(C(=O)N4CCN(c5ccc(F)cc5)CC4)C3)ncnc2s1 (stereo not drawn) [G887‐0711]	1.16	> 90
COc1ccc2ncc(C#N)c(N3CCC(C(=O)Nc4ccc(F)c(C)c4)CC3)c2c1 [L483‐0192]	1.84	71
CC1CCN(C(=O)c2ccc3ncnc(N4CCCCC4)c3c2)CC1 [M628‐0340]	1.92	77
CCn1cc(-c2ccncc2)cc1C(=O)N1CCN(c2ccc(Cl)cc2)CC1 [P076‐1220]	4.44	71
CCCn1cc(-c2ccncc2)cc1C(=O)N1CCC(C)CC1 [P076‐1448]	2.26	73
Cc1ccc(NC(=O)Nc2cnn(-c3ncncc3N3CCOCC3)c2)cc1C [T479‐0984]	0.0999	> 90
